From EP3461488A1, “COMBINATION OF A DBAIT MOLECULE AND A HDAC INHIBITOR FOR TREATING CANCER” (ONXEO, priority 2017, dated 2019)
Read-outs that look alike come from different tables or passages of the source.

How the values were obtained:
[1] = tested on: non-tumor mammary cell line MCF-10A; assay: XTT cell survival assay, non-tumor cells MCF-10A; conditions: same drug doses as MDA-MB-231, 7 days after treatment, result in words
Method: (§1) Cell cultures were performed with the triple negative breast cancer cell line MDA-MB-231, the histiocytic lymphoma cell line U937 and the non-tumor mammary cell line MCF-10A. Cells were grown according to the supplier's instructions. Cell lines were maintained at 37°C in a humidified atmosphere at 5% CO2, except the MDA-MB-231 cell line which was maintained at 0% CO2.
(§2) In a first step, the characterization of the effect of drugs monotherapy on cell survival (tumour and non-tumour cells) was performed. MDA-MB-231 (5.10^3 cells/well), MCF-10A (5.10^3 cells/well) and U937 (2.10^4 cells/well) were seeded in 96 well-plates and incubated 24 hours at +37°C before drug addition with increasing concentrations for 4 to 7 days. Following drug exposure, cell survival was measured using the XTT assay (Sigma Aldrich). Briefly, the XTT solution was added directly to each well containing cell culture and the cells incubated for 4 to 24 hours at 37°C before reading the absorbance at 490 nm and 690 nm using a microplate reader (BMG Fluostar, Galaxy). Cell survival was calculated as the ratio of living treated cells to living mock-treated cells. The IC50 (which represents the dose at which 50% of the cells are viable) was calculated by a non-linear regression model using GraphPad Prism software (version 5.04) by plotting the percentage viability against the Log of the drug concentration on each cell line.
(§3) In a second step, analysis and quantification of the drug combination efficacy were performed. Cells were seeded in 96-well plates at the appropriate densities and treated with AsiDNA and/or the HDAC inhibitor (HDACi) belinostat simultaneously during 4 to 7days.
In a first step, the characterization of the effect of drugs monotherapy on cell survival (tumour and non-tumour cells) was performed. MDA-MB-231 (5.10^3 cells/well), MCF-10A (5.10^3 cells/well) and U937 (2.10^4 cells/well) were seeded in 96 well-plates and incubated 24 hours at +37°C before drug addition with increasing concentrations for 4 to 7 days. Following drug exposure, cell survival was measured using the XTT assay (Sigma Aldrich). Briefly, the XTT solution was added directly to each well containing cell culture and the cells incubated for 4 to 24 hours at 37°C before reading the absorbance at 490 nm and 690 nm using a microplate reader (BMG Fluostar, Galaxy). Cell survival was calculated as the ratio of living treated cells to living mock-treated cells. […] In a second step, analysis and quantification of the drug combination efficacy were performed. […] Cell survival was measured using the XTT assay (see above). Combination efficacy was evaluated by "the combination index (CI)" which was determined using the CalcuSyn software tool based on the Chou Talalay method. […]

[2] = tested on: triple negative breast cancer cell line MDA-MB-231; assay: XTT cell survival assay and combination index analysis, MDA-MB-231; format: cell-based; conditions: Homo sapiens
Method: Cells were grown according to the supplier's instructions.
In a first step, the characterization of the effect of drugs monotherapy on cell survival (tumour and non-tumour cells) was performed. […] Following drug exposure, cell survival was measured using the XTT assay (Sigma Aldrich). […] Cell survival was calculated as the ratio of living treated cells to living mock-treated cells.
as §3
Combination efficacy was evaluated by "the combination index (CI)" which was determined using the CalcuSyn software tool based on the Chou Talalay method). […] Note that we define synergism as a more than expected additive effect, and antagonism as a less than expected additive effect.
In a first step, the characterization of the effect of drugs monotherapy on cell survival (tumour and non-tumour cells) was performed. […] Following drug exposure, cell survival was measured using the XTT assay (Sigma Aldrich). […] Cell survival was calculated as the ratio of living treated cells to living mock-treated cells. […] In a second step, analysis and quantification of the drug combination efficacy were performed. […] Cell survival was measured using the XTT assay (see above). Combination efficacy was evaluated by "the combination index (CI)" which was determined using the CalcuSyn software tool based on the Chou Talalay method. […]
In a first step, characterization of the effect of drugs monotherapy on cell survival (tumour and non-tumour cells) was performed. […] Following drug exposure, cell survival was measured using the XTT assay (Sigma Aldrich). […] Cell survival was calculated as the ratio of living treated cells to living mock-treated cells. […] In a second step, analysis and quantification of the drug combination efficacy were performed. […] Cell survival was measured using the XTT assay (see above). […]

[3] = tested on: histiocytic lymphoma cell line U937; assay: XTT cell survival assay and combination index analysis, U937; format: cell-based; conditions: Homo sapiens, U-937
Method: as §1, §2

[4] = XTT assay, monotherapy, increasing concentrations for 4 to 7 days, dose at which 50% of the cells are viable, read-out: IC50
[5] = U937, XTT assay, monotherapy, increasing concentrations for 4 to 7 days, dose at which 50% of the cells are viable, read-out: IC50

Row | Structure (SMILES) | cell survival of non-tumor cells (sensitivity) [1] | IC50 [2, 4] [nM] | IC50 [3, 5] [nM] | IC50 [2] [nM] | IC50 [3] [nM]
1 | O=C(/C=C/c1cccc(S(=O)(=O)Nc2ccccc2)c1)NO [Belinostat, (2E)-N-hydroxy-3-[3-(phenylsulfamoyl)phenyl]prop-2-enamide] | insensitive | 250 | 250 | – | –
2 | Nc1ccccc1NC(=O)c1ccc(CNC(=O)OCc2cccnc2)cc1 [Entinostat] | insensitive | 100 | 10 | – | –
3 | O=C(CCCCCCC(=O)Nc1ccccc1)NO [Vorinostat, N-hydroxy-N'-phenyloctanediamide] | showed a sensitivity | – | – | – | –
4 | C/C=C1\NC(=O)[C@H]2CSSCC/C=C/[C@H](CC(=O)N[C@H](C(C)C)C(=O)N2)OC(=O)[C@H](C(C)C)NC1=O [Romidepsin] | showed a sensitivity | – | – | 0.4 | 1
